Test results: ChEMBL document CHEMBL3739316, “Novel orally active inhibitors of β-1,3-glucan synthesis derived from enfumafungin” (Bioorg Med Chem Lett, 2015)
In brackets after ≈: the same amount, converted by molar mass.

What was measured:
Beta-1,3-glucan synthase = molecular target: T1, Beta-1,3-glucan synthase (Candida albicans, UniProt O13383); assay: Displacement of UDP-[3H]glucose from beta-1,3-glucan synthase in Candida albicans MY1055 microsomal membranes incubated for 2 hrs
T1 sequence (O13383 whole entry): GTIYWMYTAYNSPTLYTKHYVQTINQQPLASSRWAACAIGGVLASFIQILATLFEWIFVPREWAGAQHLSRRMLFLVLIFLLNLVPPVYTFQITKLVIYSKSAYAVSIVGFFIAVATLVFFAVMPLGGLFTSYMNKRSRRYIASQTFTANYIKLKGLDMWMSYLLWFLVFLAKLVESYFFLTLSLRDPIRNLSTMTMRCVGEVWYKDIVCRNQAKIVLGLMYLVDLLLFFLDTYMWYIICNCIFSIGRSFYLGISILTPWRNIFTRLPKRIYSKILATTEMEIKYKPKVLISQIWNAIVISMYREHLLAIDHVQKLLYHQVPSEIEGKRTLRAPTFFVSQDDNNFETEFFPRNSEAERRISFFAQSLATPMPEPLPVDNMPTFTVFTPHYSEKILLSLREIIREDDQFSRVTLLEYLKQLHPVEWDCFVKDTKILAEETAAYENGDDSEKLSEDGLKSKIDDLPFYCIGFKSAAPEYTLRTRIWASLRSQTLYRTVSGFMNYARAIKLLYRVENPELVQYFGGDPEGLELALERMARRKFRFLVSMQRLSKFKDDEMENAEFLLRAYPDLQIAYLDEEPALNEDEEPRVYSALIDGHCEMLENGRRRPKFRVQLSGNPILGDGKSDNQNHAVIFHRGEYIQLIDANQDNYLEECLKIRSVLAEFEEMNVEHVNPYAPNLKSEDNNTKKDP

Candida albicans [1] = assay: Antifungal activity against Candida albicans MY1055 after 24 hrs by liquid microdilution assay; type: functional; conditions: MY1055, 24 h
Aspergillus fumigatus = assay: Antifungal activity against Aspergillus fumigatus MF5668 after 24 hrs by liquid microdilution assay; type: functional; conditions: MF5668, 24 h, read-out: MEC
Candida albicans [2] = assay: Antifungal activity against Candida albicans MY1055 after 24 hrs by liquid microdilution assay in presence of human serum; type: functional; conditions: MY1055, 24 h
Mus musculus = assay: Dose normalized AUC in orally dosed mouse; type: ADME, organism-based; conditions: in vivo, po
[3] = Oral bioavailability in mouse; type: ADME, organism-based; conditions: in vivo
Candida albicans [4] = assay: Antifungal activity against Candida albicans MY1055 in DBA/2 mouse candidiasis model assessed as change in CFU per gram of kidney at 25 mg/kg, po bid after 4 days by Target Organ Kidney Assay relative to sham treated control; type: functional
Candida albicans [5] = assay: Antifungal activity against Candida albicans MY1055 in DBA/2 mouse candidiasis model assessed as change in CFU per gram of kidney at 12.5 mg/kg, po bid after 4 days by Target Organ Kidney Assay relative to sham treated control; type: functional
Candida albicans [6] = assay: Antifungal activity against Candida albicans MY1055 in DBA/2 mouse candidiasis model assessed as change in CFU per gram of kidney at 6.25 mg/kg, po bid after 4 days by Target Organ Kidney Assay relative to sham treated control; type: functional

Row | SMILES | IC50 (Beta-1,3-glucan synthase) [nM] | MIC (Candida albicans [1]) [µg/mL] | minimal effective concentration (Aspergillus fumigatus) [µg/mL] | MIC (Candida albicans [2]) [µg/mL] | AUC/dose (Mus musculus) [µM·kg·h/mg] | bioavailability [3] [%] | Activity (Candida albicans [4]) [deltalog10CFU] | Activity (Candida albicans [5]) [deltalog10CFU] | Activity (Candida albicans [6]) [deltalog10CFU]
1 | CC(C)[C@@H](C)[C@@]1(C)CC[C@]2(C)[C@H]3CC[C@H]4C5(C)COC[C@@]4(C[C@@H](n4ccc6ccccc64)[C@@H]5O[C@@H]4O[C@H](CO)[C@@H](O)[C@H](O)[C@H]4O)C3=CC[C@@]2(C)[C@@H]1C(=O)O | 1410 | > 32 | 4 | > 32 |  |  |  |  | 
2 | Cc1nnn([C@@H]2C[C@@]34COCC(C)([C@H]2OC[C@](C)(N)C(C)C)[C@@H]3CC[C@H]2C4=CC[C@@]3(C)[C@H](C(=O)O)[C@@](C)([C@H](C)C(C)C)CC[C@]23C)n1 | 24.5 | 1 (≈ 1.53 µM) | 0.5 | > 32 |  |  |  |  | 
3 | CC(C)[C@@H](C)[C@@]1(C)CC[C@]2(C)[C@H]3CC[C@H]4C5(C)COC[C@@]4(C[C@@H](n4cccn4)[C@@H]5O[C@@H]4O[C@H](CO)[C@@H](O)[C@H](O)[C@H]4O)C3=CC[C@@]2(C)[C@@H]1C(=O)O | 813 | 2 (≈ 2.85 µM) | 0.06 | > 32 |  |  |  |  | 
4 | CC(C)[C@@H](C)[C@@]1(C)CC[C@]2(C)[C@H]3CC[C@H]4C5(C)COC[C@@]4(C[C@@H](n4cnnc4)[C@@H]5O[C@@H]4O[C@H](CO)[C@@H](O)[C@H](O)[C@H]4O)C3=CC[C@@]2(C)[C@@H]1C(=O)O |  | 4 (≈ 5.7 µM) | 1 | > 32 |  |  |  |  | 
5 | CC(=O)Nc1nnnn1[C@@H]1C[C@@]23COCC(C)([C@H]1OC[C@](C)(N)C(C)C)[C@@H]2CC[C@H]1C3=CC[C@@]2(C)[C@H](C(=O)O)[C@@](C)([C@H](C)C(C)C)CC[C@]12C | 81.8 | 8 (≈ 11.5 µM) | < 0.03 | > 32 |  |  |  |  | 
6 | CCCCN[C@@](C)(CO[C@H]1[C@H](n2nnc(N)n2)C[C@@]23COCC1(C)[C@@H]2CC[C@H]1C3=CC[C@@]2(C)[C@H](C(=O)O)[C@@](C)([C@H](C)C(C)C)CC[C@]12C)C(C)C | 14.1 | 16 (≈ 22.5 µM) | 0.125 | 32 | 0.74 | 30 | -2.6 | -1.2 | -0.1
7 | CC(=O)O[C@@H]1C[C@@]23COCC(C)([C@H]1OC[C@](C)(N)C(C)C)[C@@H]2CC[C@H]1C3=CC[C@@]2(C)[C@H](C(=O)O)[C@@](C)([C@H](C)C(C)C)CC[C@]12C | 9.52 | 0.5 (≈ 0.794 µM) | 0.06 | > 32 | 1.38 | 39 | -2.2 | -0.6 | -0.6
8 | CC(C)[C@@H](C)[C@@]1(C)CC[C@]2(C)[C@H]3CC[C@H]4C5(C)COC[C@@]4(C[C@@H](n4cc6ccccc6n4)[C@@H]5O[C@@H]4O[C@H](CO)[C@@H](O)[C@H](O)[C@H]4O)C3=CC[C@@]2(C)[C@@H]1C(=O)O | 1200 | 32 (≈ 42.6 µM) | 2 | > 32 |  |  |  |  | 
9 | CC(C)[C@@H](C)[C@@]1(C)CC[C@]2(C)[C@H]3CC[C@H]4C5(C)COC[C@@]4(C[C@@H](n4nccn4)[C@@H]5O[C@@H]4O[C@H](CO)[C@@H](O)[C@H](O)[C@H]4O)C3=CC[C@@]2(C)[C@@H]1C(=O)O | 1410 | > 32 | 0.5 | > 32 |  |  |  |  | 
10 | CC(C)[C@@H](C)[C@@]1(C)CC[C@]2(C)[C@H]3CC[C@H]4C5(C)COC[C@@]4(C[C@@H](n4ccnn4)[C@@H]5O[C@@H]4O[C@H](CO)[C@@H](O)[C@H](O)[C@H]4O)C3=CC[C@@]2(C)[C@@H]1C(=O)O | > 14200 | > 32 | 2 | > 32 |  |  |  |  | 
11 | COc1ccc([C@@H]2C[C@@]34COCC(C)([C@H]2O[C@@H]2O[C@H](CO)[C@@H](O)[C@H](O)[C@H]2O)[C@@H]3CC[C@H]2C4=CC[C@@]3(C)[C@H](C(=O)O)[C@@](C)([C@H](C)C(C)C)CC[C@]23C)cc1 | 634 | 2 (≈ 2.7 µM) | 0.25 | > 32 |  |  |  |  | 
12 | CC(C)[C@@H](C)[C@@]1(C)CC[C@]2(C)[C@H]3CC[C@H]4C5(C)COC[C@@]4(C[C@@H](n4nnnc4N)[C@@H]5OC[C@](C)(N)C(C)C)C3=CC[C@@]2(C)[C@@H]1C(=O)O | 56.5 | 4 (≈ 6.11 µM) | 0.25 | > 32 |  |  |  |  | 
13 | CC(=O)O[C@@H]1C[C@@]23COCC(C)([C@H]1OCC(C)(C)N)[C@@H]2CC[C@H]1C3=CC[C@@]2(C)[C@H](C(=O)O)[C@@](C)([C@H](C)C(C)C)CC[C@]12C | 74.8 | 1 (≈ 1.66 µM) | < 0.03 | 32 | 1.22 | 37 | -1.4 |  | 
14 | CC(C)[C@@H](C)[C@@]1(C)CC[C@]2(C)[C@H]3CC[C@H]4C5(C)COC[C@@]4(C[C@@H](n4cncn4)[C@@H]5O[C@@H]4O[C@H](CO)[C@@H](O)[C@H](O)[C@H]4O)C3=CC[C@@]2(C)[C@@H]1C(=O)O | 342 | 2 (≈ 2.85 µM) | 0.125 | 32 |  |  |  |  | 
15 | CC(=O)O[C@@H]1C[C@@]23COCC(C)([C@H]1OC[C@@](C)(N)C(C)C)[C@@H]2CC[C@H]1C3=CC[C@@]2(C)[C@H](C(=O)O)[C@@](C)([C@H](C)C(C)C)CC[C@]12C | 22.2 | 0.25 (≈ 0.397 µM) | < 0.03 | 16 | 0.73 | 31 | -1.9 | -0.1 | -0.5
16 | Cc1nnnn1[C@@H]1C[C@@]23COCC(C)([C@H]1OC[C@](C)(N)C(C)C)[C@@H]2CC[C@H]1C3=CC[C@@]2(C)[C@H](C(=O)O)[C@@](C)([C@H](C)C(C)C)CC[C@]12C | 71.9 | 8 (≈ 12.2 µM) | 4 | > 32 |  |  |  |  | 
17 | CC(C)[C@@H](C)[C@@]1(C)CC[C@]2(C)[C@H]3CC[C@H]4C5(C)COC[C@@]4(C[C@@H](Oc4ccccc4)[C@@H]5O[C@@H]4O[C@H](CO)[C@@H](O)[C@H](O)[C@H]4O)C3=CC[C@@]2(C)[C@@H]1C(=O)O | 578 | 2 (≈ 2.75 µM) | 0.125 | 32 |  |  |  |  | 
18 | CC(C)[C@@H](C)[C@@]1(C)CC[C@]2(C)[C@H]3CC[C@H]4C5(C)COC[C@@]4(C[C@@H](n4ncc6ccccc64)[C@@H]5O[C@@H]4O[C@H](CO)[C@@H](O)[C@H](O)[C@H]4O)C3=CC[C@@]2(C)[C@@H]1C(=O)O | > 1330 | 32 (≈ 42.6 µM) | 8 | > 32 |  |  |  |  | 
19 | CC(=O)Nc1nnn([C@@H]2C[C@@]34COCC(C)([C@H]2OC[C@](C)(N)C(C)C)[C@@H]3CC[C@H]2C4=CC[C@@]3(C)[C@H](C(=O)O)[C@@](C)([C@H](C)C(C)C)CC[C@]23C)n1 | 86.1 | 0.25 (≈ 0.359 µM) | < 0.03 | 16 |  |  |  |  | 
